US10464918B2, “Process of making somatostatin modulators” (Crinetics Pharmaceuticals, Inc., priority 2018, dated 2019)
≈ marks a conversion by molar mass, not a printed value. Where a name gives a salt, the structure may show the parent alone. Read-outs that look alike come from different tables or passages of the source.

How the values were obtained:
human SSTR2 = human SSTR2 (Homo sapiens (Human), UniProt P30874); assay: Functional cAMP assay for SSTR2 agonists; type: cell-based; conditions: inhibition of cAMP activities via human SST2R; CHO-K1 cells stably expressing human SSTR2
Method: General overview: All five SSTR subtypes are Gi coupled G-protein coupled receptors (GPCRs) that lead to decreases in intracellular cyclic AMP (cAMP) when activated by an agonist. […] Human SSTR2 intracellular cAMP assay is described below. The human SSTR1, 3, 4 and 5 assays follow the same protocol of SSTR2.
The cells are cultured at 37° C., 5% CO2 and 95% humidity. […] The cells are incubated for 20 minutes at 37° C. […] The cells are treated with 50 μL of lysis buffer (HRTF cAMP kit, Cisbio). The lysate is transferred to 384-well plates and cAMP detection and visualization antibodies are added and incubated for 1-24 hours at room temperature. The time-resolved fluorescent signal is read with a Tecan M1000Pro multiplate reader. The intracellular cAMP concentrations are calculated by regression to a standard curve and are plotted vs. the concentration of the compounds of the invention and the EC50 of the compounds are calculated using standard methods. All data manipulations are in GraphPad Prism v6.

[1] = Solubility in water, FaSSGF and FaSSIF (slurry, HPLC); type: physicochemical; conditions: slurried at 37° C. for 2 days; for solubility at 2 days: 37 °C, thermodynamic from solid
Method: The salt forms were slurried in water, Fasted State Simulated Gastric Fluid (FaSSGF), and Fasted State Simulated Intestinal Fluid (FaSSIF) at 37° C. for 2 days. Part of the slurry was filtered using a […] syringe filter to recover the supernatant for solubility measurement and the rest was filtered to recover the remaining solid for XRPD analysis.
A calibration curve was developed for measuring concentration via HPLC. Compound A was added to a 100 mL volumetric flask and then filled to the volume with HPLC grade ethanol. […] A 30 minute gradient method with Solvent A as water with 0.1% TFA and solvent B as Methanol:Acetonitrile (1:1) was used.
The calibration correlation was used to measure the solubility of the salt forms. From the clear saturated solution, 0.1 mL liquid was transferred into a 10 mL vial and then filled to the volume with methanol. The solution was then directly injected into the HPLC.

[2] = Dynamic Vapor Sorption (DVS); type: physicochemical; conditions: for XRPD after DVS analysis: DVS between 2 and 95% RH
Method: Dynamic Vapor Sorption (DVS) was done using a DVS Intrinsic 1. The sample is loaded into a sample pan and suspended from a microbalance. A typical sample mass for DVS measurement is 25 mg. Nitrogen gas bubbled through distilled water provides the desired relative humidity.
A typical measurement includes the steps: • 1—Equilibrate at 50% RH • 2—50% to 2%. (50%, 40%, 30%, 20%, 10% and 2%) • a. Hold minimum of 5 mins and maximum of 60 minutes at each humidity. The pass criteria is less than 0.002% change • 3—2% to 95% (2%, 10%, 20%, 30%, 40%, 50%, 60%, 70%, 80%, 90%, 95%) • a. Hold minimum of 5 mins and maximum of 60 minutes at each humidity. The pass criteria is less than 0.002% change • 4—95% to 2% (95%, 80%, 70%, 60%, 50%, 40%, 30%, 20%, 10%, 2%) • a. Hold minimum of 5 mins and maximum of 60 minutes at each humidity. The pass criteria is less than 0.002% change • 5—2% to 50% (2%, 10%, 20%, 30%, 40%, 50%) • a. Hold minimum of 5 mins and maximum of 60 minutes at each humidity. The pass criteria is less than 0.002% change

[3] = Thermal study (TGA/DSC heating followed by XRPD); type: physicochemical; conditions: heated by TGA/DSC, cooled to RT
Method: Differential Scanning calorimetry (DSC) was done using a Mettler Toledo DSC3+. Aluminum crucible with cramped pinned lid were used. The heating rates are usually 10° C. per minute from 30 to 250° C. Thermogravimetric Analysis (TGA) was done using a Mettler Toledo TGA/DSC3+. Aluminum crucible with cramped pinned lid were used. The heating rates are usually 10° C. per minute from 30 to 250° C. […] These peaks were evaluated using thermal analysis and XRPD techniques. Compound A-HCl was heated to various temperatures using TGA/DSC followed by cooling to room temperature and analysis using XRPD. […] The following thermal treatments were performed: Sample 1: heated the salt to 100° C. and cooled to RT followed by XRPD; Sample 2: heated the salt to 150° C. and cooled to RT followed by XRPD; Sample 3: heated the salt to 200° C. and cooled to RT followed by XRPD; Sample 4: heated the salt to 250° C. and cooled to RT followed by XRPD; and Sample 5: heated the salt to 295° C. and cooled to RT followed by XRPD.

[4] = Fasted State Simulated Gastric Fluid (FaSSGF), fassgf or other biorelevant, Fasted State Simulated Gastric Fluid, read-out: Solubility in FaSSGF
[5] = Fasted State Simulated Intestinal Fluid (FaSSIF), fassif, Fasted State Simulated Intestinal Fluid, read-out: Solubility in FaSSIF

Sequence of human SSTR2 (P30874 whole entry): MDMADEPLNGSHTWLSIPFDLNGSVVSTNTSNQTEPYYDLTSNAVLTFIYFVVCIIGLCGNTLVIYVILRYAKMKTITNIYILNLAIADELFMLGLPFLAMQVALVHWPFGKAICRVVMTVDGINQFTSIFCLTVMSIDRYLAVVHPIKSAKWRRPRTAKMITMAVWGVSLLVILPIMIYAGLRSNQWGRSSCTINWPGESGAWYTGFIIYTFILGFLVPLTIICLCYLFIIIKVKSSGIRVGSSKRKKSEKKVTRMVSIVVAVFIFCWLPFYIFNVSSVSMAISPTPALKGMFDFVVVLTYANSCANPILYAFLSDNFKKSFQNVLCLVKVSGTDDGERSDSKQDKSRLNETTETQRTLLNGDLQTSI

**Q.** Which EC50 (human SSTR2) does the source give for O/N=C/c1cccc(-c2ccc3ncc(-c4cc(F)cc(F)c4)c(N4CC[C@@H]5NCCO[C@H]5C4)c3c2)c1O [Compound 1-1, 2-{4-[(4aS,8aS)-octahydro-1H-pyrido[3,4-b][1,4]oxazin-6-yl]-3-(3,5-difluorophenyl)quinolin-6-yl}-6-[(1E)-(hydroxyimino)methyl]phenol] here?
**A.** The EC50 was less than 10 nM.

**Q.** For CO/N=C/c1ccnc(-c2ccc3ncc(-c4cc(C)cc(F)c4)c(N4CC[C@@H]5NCCO[C@H]5C4)c3c2)c1N [Compound 1-2, 2-{4-[(4aS,8aS)-octahydro-1H-pyrido[3,4-b][1,4]oxazin-6-yl]-3-(3-fluoro-5-methylphenyl)quinolin-6-yl}-4-[(1E)-(methoxyimino)methyl]pyridin-3-amine], which EC50 (human SSTR2) is on record?
**A.** Its EC50 is less than 10 nM.

**Q.** With CO/N=C/c1ccnc(-c2ccc3ncc(-c4cc(F)cc(Cl)c4)c(N4CC[C@@H]5NCCO[C@H]5C4)c3c2)c1N [Compound 1-3, 2-{4-[(4aS,8aS)-octahydro-1H-pyrido[3,4-b][1,4]oxazin-6-yl]-3-(3-chloro-5-fluorophenyl)quinolin-6-yl}-4-[(1E)-(methoxyimino)methyl]pyridin-3-amine] as the compound, how does the EC50 (human SSTR2) read?
**A.** Its EC50 is less than 10 nM.

**Q.** For Cc1cc(F)cc(-c2cnc3ccc(-c4nccc(C#N)c4N)cc3c2N2CC[C@@H]3NCCO[C@H]3C2)c1 [Compound 1-4, 2-{4-[(4aS,8aS)-octahydro-1H-pyrido[3,4-b][1,4]oxazin-6-yl]-3-(3-fluoro-5-methylphenyl)quinolin-6-yl}-3-aminopyridine-4-carbonitrile], which EC50 (human SSTR2) is on record?
**A.** Its EC50 is less than 10 nM.

**Q.** With N#Cc1ccnc(-c2ccc3ncc(-c4cc(F)cc(Cl)c4)c(N4CC[C@@H]5NCCO[C@H]5C4)c3c2)c1N [Compound 1-5, 2-{4-[(4aS,8aS)-octahydro-1H-pyrido[3,4-b][1,4]oxazin-6-yl]-3-(3-chloro-5-fluorophenyl)quinolin-6-yl}-3-aminopyridine-4-carbonitrile] as the compound, how does the EC50 (human SSTR2) read?
**A.** The EC50 was less than 10 nM.

**Q.** With Nc1c(/C=N/O)ccnc1-c1ccc2ncc(-c3cc(F)cc(F)c3)c(N3CC[C@@H]4NCCO[C@H]4C3)c2c1 [Compound 1-6, 2-{4-[(4aS,8aS)-octahydro-1H-pyrido[3,4-b][1,4]oxazin-6-yl]-3-(3,5-difluorophenyl)quinolin-6-yl}-4-[(1E)-(hydroxyimino)methyl]pyridin-3-amine] as the compound, how does the EC50 (human SSTR2) read?
**A.** Its EC50 is less than 10 nM.

**Q.** With N#Cc1ccnc(-c2ccc3ncc(-c4cccc(F)c4)c(N4CC[C@@H]5NCCO[C@H]5C4)c3c2)c1N [Compound 1-7, 2-{4-[(4aS,8aS)-octahydro-1H-pyrido[3,4-b][1,4]oxazin-6-yl]-3-(3-fluorophenyl)quinolin-6-yl}-3-aminopyridine-4-carbonitrile] as the compound, how does the EC50 (human SSTR2) read?
**A.** The EC50 was less than 10 nM.

**Q.** Which EC50 (human SSTR2) does the source give for Cc1ccnc(-c2ccc3ncc(-c4cccc(F)c4)c(N4CC[C@@H]5NCCO[C@H]5C4)c3c2)c1N [Compound 1-8, 2-{4-[(4aS,8aS)-octahydro-1H-pyrido[3,4-b][1,4]oxazin-6-yl]-3-(3-fluorophenyl)quinolin-6-yl}-4-methylpyridin-3-amine] here?
**A.** Its EC50 is less than 10 nM.

**Q.** For Cc1cc(F)cc(-c2cnc3ccc(-c4cccc(C#N)c4O)c(F)c3c2N2CCC(N)CC2)c1 [Compound 1-9, 3-[4-(4-aminopiperidin-1-yl)-5-fluoro-3-(3-fluoro-5-methylphenyl)quinolin-6-yl]-2-hydroxybenzonitrile], which EC50 (human SSTR2) is on record?
**A.** The EC50 was less than 10 nM.

**Q.** For Cc1cc(F)cc(-c2cnc3cc(F)c(-c4cccc(C#N)c4O)cc3c2N2CCC(N)CC2)c1 [Compound 1-10, 3-[4-(4-aminopiperidin-1-yl)-7-fluoro-3-(3-fluoro-5-methylphenyl)quinolin-6-yl]-2-hydroxybenzonitrile], which EC50 (human SSTR2) is on record?
**A.** Its EC50 is less than 10 nM.

**Q.** For N#Cc1cccc(-c2ccc3ncc(-c4cc(F)cc(F)c4)c(N4CCC(N)CC4)c3c2)c1O [Compound A, 3-(4-(4-amino-piperidin-1-yl)-3-(3,5-difluoro-phenyl)-quinolin-6-yl)-2-hydroxy-benzonitrile], which EC50 (human SSTR2) is on record?
**A.** The EC50 was less than 10 nM.

**Q.** What about the solubility at 2 days [1, 4] of the same compound?
**A.** Its solubility at 2 days is 2430 µg/mL (≈ 5320 µM).

**Q.** And the solubility at 2 days [1, 5]?
**A.** Its solubility at 2 days is 13 µg/mL (≈ 28.5 µM).

**Q.** What about the “Solubility in Water” value ([1]; water, listed as Compound A (free base)) of the same compound?
**A.** The value was 5 µg/mL (≈ 11 µM).

**Q.** For N#Cc1cccc(-c2ccc3ncc(-c4cc(F)cc(F)c4)c(N4CCC(N)CC4)c3c2)c1O [Compound A-2HCl, 3-[4-(4-amino-piperidin-1-yl)-3-(3,5-difluoro-phenyl)-quinolin-6-yl]-2-hydroxy-benzonitrile dihydrochloride], which “Solubility in FaSSGF” value ([1]; Fasted State Simulated Gastric Fluid, dihydrochloride) is on record?
**A.** The value was 3690 µg/mL.

**Q.** What about the “Solubility in FaSSIF” value ([1]; Fasted State Simulated Intestinal Fluid, dihydrochloride) of the same compound?
**A.** The value was 11 µg/mL.

**Q.** What about the “Solubility in Water” value ([1]; water, dihydrochloride) of the same compound?
**A.** Its value is 5630 µg/mL.

**Q.** And the “XRPD after DVS analysis” value [2]?
**A.** Its value is “unchanged”.

**Q.** And the reversible water uptake ([2]; between 2 and 95% RH)?
**A.** The reversible water uptake was roughly 18 % w/w.

**Q.** What about the reversible water uptake ([2]; between 15 and 75% RH) of the same compound?
**A.** Its reversible water uptake is roughly 9 % w/w.

**Q.** Which results are given for Cl.N#Cc1cccc(-c2ccc3ncc(-c4cc(F)cc(F)c4)c(N4CCC(N)CC4)c3c2)c1O [Compound A-HCl, 3-[4-(4-amino-piperidin-1-yl)-3-(3,5-difluoro-phenyl)-quinolin-6-yl]-2-hydroxy-benzonitrile monohydrochloride]?
**A.** solubility at 2 days [1, 4]: 2120 µg/mL; solubility at 2 days [1, 5]: 10 µg/mL; solubility at 2 days ([1]; water, water, water, read-out: Solubility in Water): 830 µg/mL; XRPD after DVS analysis [2]: unchanged; reversible water uptake ([2]; between 2 and 95% RH): ~4.5 % w/w; reversible water uptake ([2]; between 15 and 75% RH): ~2.3 % w/w; temperature up to which the solid is intact [3]: up to 200 °C
